Source: patent publication US20120128667A1 (ONCOZYME PHARMA INC., priority 2009, published 2012)
“And” between values parts separate entries of the source, which are not always exact repeats. Equal entries are not always repeated. “Also recorded” adds a separate entry of the source. Where two headings read alike, the source gives them in different places.

Legend:
[1] = tested on: HT29 (colon cancer (adenocarcinoma, primary tumor)); experiment: cells; conditions: for Percentage of cells killed: HT29; for CC50: Homo sapiens
Method: (§1) Cell Survival-MTT assay: The MTT (3-[4,5-Dimethylthiazol-2-yl]-2,5 diphenyl tertrazolim bromide) method of determining cell growth/cytotoxicity was used to determine cell survival. MTT is a tetrazolium salt that binds to b mitochondrial dehydrogenases of living cells. Binding converts yellow, water soluble MTT to an insoluble, purple formazan crystal. The crystals are solubilized with a 50% N,N-dimethylformamide (vol/vol), 20% SDS (wt/vol) solution (pH 4.7), and absorbance is determined at a wavelength of 570 nm. Unbound MTT is not detectable at this wavelength. The amount of bound MTT measured in the assay is proportional to the number of live cells present. (Niks and Otto 1990: “Towards an optimized MTT assay,” J. Immunol. Methods. 130, 149-151, Hussain et al. 1993; “A new approach for measurement of cytotoxicity using colorimetric assay,” J. Immunol. Methods. 160, 89-96).
(§2) Cells were harvested from cell cultures using the standard protocol (Trypsin/EDTA). The cells (1000 to 5000 cells in 50 μl of solution depending on cell type used) were then plated and incubated overnight at 37° C. before the addition of the agent or combination of agents.) After 2 days of incubation at 37° C., 10 μl of a 5 mg/ml solution of MTT was then added to all the wells and to a media control well. The plates were further incubated for 4 hours. A 100 μl of MTT solubilization buffer was added and the plates were incubated overnight at 37° C. The plates were then read on the ELISA plate reader with absorbance at 570 nm and a reference at 630 nm.
(§3) The effects of combinations were tested on three representative cancer cell lines: H661 (lung cancer (carcinoma)), MCF-7 (breast cancer (adenocarcinoma, pleural effusion)), and HT29 (colon cancer (adenocarcinoma, primary tumor)). Initial assays were carried out to determine the concentrations at which taxol, oxaliplatin, gemcitabine, or CPT 11 (also known as irinotecan) killed approximately 10% of the cells under investigation.

[2] = tested on: H661 (lung cancer (carcinoma)); experiment: cells; conditions: for Percentage of cells killed: H661; for CC50: Homo sapiens
Method: as §1, §2, §3

[3] = tested on: MCF-7 (breast cancer (adenocarcinoma, pleural effusion)); experiment: cells; conditions: for Percentage of cells killed: MCF7; for CC50: Homo sapiens
Method: as §1, §2, §3

[4] = injected slowly into patients; cited from earlier work
[5] = tested on: BxPC3 human pancreas xenograft; conditions: IP bi-weekly; Pentamidine 45 mg/kg, Gemcitabine 150 mg/kg
Method: BxPC3 cells were transplanted subcutaneously into the flank of each animal as a suspension of tumor cells (5×10^6 cells in 0.1 mL in PBS) on Jan. […] Transplantation was performed under a laminar airflow hood. […] Animals were labeled using the “ear punching” method so that for each group, all 10 animals could be distinguished. Each group of 10 mice was housed in 2 separate cages of 5 mice each; animal numbers 1 to 5 were housed in Cage A and animal numbers 6 to 10 were housed in Cage B.
Prior to every dosing injection, each animal was weighed and received their respective formulations. […] Mice in group 3 were treated intraperitoneally, bi-weekly (Tuesday-Friday) at 150 mg/kg with Gemcitabine for eleven weeks. […] The dose volume was 30 mL/kg for mice treated intraperitoneally.
At termination, when the tumor volume of one of the mice in the group reached 1500 mm^3, the whole group was sacrificed, and animals were anaesthetized using isoflurane and sacrificed by cervical dislocation.

metastatic colon cancer = experiment: Phase I/IIa clinical trial colon cancer (Example 3); type: in vivo, human; conditions: interim results; I.V. pentamidine Day -2 and Day -1 before chemotherapy cycle
Source text: (FOLFOX regimens contain oxaliplatin, FOLFIRI regimens contain CPT 11 also known as Irinotecan; and IROX regimens contain Irinotecan and Oxaliplatin). Patients may also receive bevacizumab (Avastin) as part of chemotherapy or cetuximab (Erbitux) or panitumumab (Vectibix). Twenty-two patients are enrolled to date.
A further dose is being given on Day −1.
Both dose escalation and treatment with pentamidine alone are at the discretion of the treating physician.
Almost all patients will have previously failed on their current treatment or a combination thereof.

[6] = repeated dosing; cited from earlier work
[7] = tested on: metastatic colorectal cancer (mCRC); experiment: Phase I/II trial of pentamidine with chemotherapy in previously treated mCRC (Example 5); type: in vivo, human
[8] = 13 evaluable pts, first 2 cycles
[9] = 13 evaluable pts, pentamidine before CTX
[10] = per patient, NCI CTCAEv3, pentamidine + CTX
[11] = preliminary analysis, pentamidine + CTX

CCc1c2c(nc3ccc(OC(=O)N4CCC(N5CCCCC5)CC4)cc13)-c1cc3c(c(=O)n1C2)COC(=O)[C@]3(O)CC [CPT-11, camptothecin-11]
Percentage of cells killed ([1]; CPT-11 3.2 μM alone): 6% | Percentage of cells killed ([2]; CPT-11 3.2 μM alone): 14% | Percentage of cells killed ([3]; CPT-11 3.2 μM alone): 30%

N.N.[Cl][Pt][Cl] [Cis-platinum]
urinary excretion [4]: ≤ 75%

Nc1ccn([C@@H]2O[C@H](CO)[C@@H](O)C2(F)F)c(=O)n1 [Gemcitabine, gemcitabine]
Percentage of cells killed ([1]; Gemcitabine 0.26 μM alone): 23% | Percentage of cells killed ([2]; Gemcitabine 0.26 μM alone): 25% | Percentage of cells killed ([3]; Gemcitabine 0.26 μM alone): 23%

O=C1[O][Pt]2([NH][C@@H]3CCCC[C@H]3[NH]2)[O]C1=O [Oxaliplatin, oxaliplatin]
Percentage of cells killed ([1]; Oxaliplatin 0.25 μM alone): 10% | Percentage of cells killed ([2]; Oxaliplatin 0.25 μM alone): 14% | Percentage of cells killed ([3]; Oxaliplatin 0.25 μM alone): 8%

N=C(N)c1ccc(OCCCCCOc2ccc(C(=N)N)cc2)cc1 [Pentamidine]
effect in the treatment of pancreatic cancer (tumor growth, FIG. 3) [5]: beneficial effect | overall survival compared with best current therapy (metastatic colon cancer): significantly enhances overall survival | time after final dose at which pentamidine was detected in tissue [6]: 25 days | Percentage of cells killed ([1]; Pentamidine 0.15 mM alone): 13% | CC50 ([1]; HT-29, 48 h, read-out: LC50 of Pentamidine): 270 µM | CC50 ([1]; HT-29, read-out: LC50 of Pentamidine With CPT11 (0.25 μM)): 12 µM | CC50 ([1]; HT-29, read-out: LC50 of Pentamidine With Gemcitabine (0.26 μM)): 30 µM | CC50 ([1]; HT-29, read-out: LC50 of Pentamidine With Oxaliplatin (0.25 μM)): 9 µM | CC50 ([1]; HT-29, read-out: LC50 of Pentamidine with Taxol (2 μM)): 130 µM | Percentage of cells killed ([2]; Pentamidine 0.15 mM alone): 50% | CC50 ([2]; NCI-H661, 48 h, read-out: LC50 of Pentamidine): 150 µM | CC50 ([2]; NCI-H661, read-out: LC50 of Pentamidine With CPT11 (0.25 μM)): 3 µM | CC50 ([2]; NCI-H661, read-out: LC50 of Pentamidine With Gemcitabine (0.26 μM)): 27 µM | CC50 ([2]; NCI-H661, read-out: LC50 of Pentamidine With Oxaliplatin (0.25 μM)): 3 µM | CC50 ([2]; NCI-H661, read-out: LC50 of Pentamidine with Taxol (2 μM)): 7 µM | CC50 ([3]; MCF7, 48 h, read-out: LC50 of Pentamidine): 150 µM | CC50 ([3]; MCF7, read-out: LC50 of Pentamidine With CPT11 (0.25 μM)): 26 µM | CC50 ([3]; MCF7, read-out: LC50 of Pentamidine With Gemcitabine (0.26 μM)): 66 µM | CC50 ([3]; MCF7, read-out: LC50 of Pentamidine With Oxaliplatin (0.25 μM)): 9 µM | CC50 ([3]; MCF7, read-out: LC50 of Pentamidine with Taxol (2 μM)): 60 µM | Percentage of cells killed ([3]; Pentamidine 0.15 mM alone): 50% | DLT anorexia, share of pts [7, 8]: 8% | DLT hyperglycaemia, share of pts [7, 8]: 8% | Grade 3/4 AEs attributed to pentamidine: hyperglycaemia [7, 9]: 23% | Grade 3/4 AEs attributed to pentamidine: hyperlipasemia [7, 9]: 15% | activity in mCRC that has progressed on standard lines of treatment (in words) ([7]; Pentamidine & CTX): disease stabilizing activity | Reason for exiting the trial: Fatigue ([7]; initial 17 pts): 12% | Reason for exiting the trial: Fatigue, number of pts ([7]; initial 17 pts): 2 | Reason for exiting the trial: PD ([7]; initial 17 pts): 35% | Reason for exiting the trial: PD, number of pts ([7]; initial 17 pts): 6 | Reason for exiting the trial: Toxicity attributed to pentamidine ([7]; initial 17 pts): 18% | Reason for exiting the trial: Toxicity attributed to pentamidine, number of pts ([7]; initial 17 pts): 3 | Response at patient exit from trial: CR ([7]; initial 17 pts): 0% | Response at patient exit from trial: CR, number of pts ([7]; initial 17 pts): 0 | Response at patient exit from trial: PD ([7]; initial 17 pts): 47% | Response at patient exit from trial: PD, number of pts ([7]; initial 17 pts): 8 | Response at patient exit from trial: PR ([7]; initial 17 pts): 0% | Response at patient exit from trial: PR, number of pts ([7]; initial 17 pts): 0 | Response at patient exit from trial: SD ([7]; initial 17 pts): 35% | Response at patient exit from trial: SD, number of pts ([7]; initial 17 pts): 6 | Best response during treatment: CR ([7]; initial 17 pts, RECIST): 0% | Best response during treatment: CR, number of pts ([7]; initial 17 pts, RECIST): 0 | Best response during treatment: PD ([7]; initial 17 pts, RECIST): 24% | Best response during treatment: PD, number of pts ([7]; initial 17 pts, RECIST): 4 | Best response during treatment: PR ([7]; initial 17 pts, RECIST): 6% | Best response during treatment: PR, number of pts ([7]; initial 17 pts, RECIST): 1 | Best response during treatment: SD ([7]; initial 17 pts, RECIST): 59% | Best response during treatment: SD, number of pts ([7]; initial 17 pts, RECIST): 10 | Attribution to Pentamidine: Anorexia ([7]; per patient): possibly | Attribution to Pentamidine: Diarrhea ([7]; per patient): No (2×) and possibly | Attribution to Pentamidine: Elevated Lipase ([7]; per patient): posssibly; also recorded: definitely | Attribution to Pentamidine: Fainting/syncope ([7]; per patient): No | Attribution to Pentamidine: General deterioration ([7]; per patient): No | Attribution to Pentamidine: Hand-foot reaction ([7]; per patient): No | Attribution to Pentamidine: Neutropenia ([7]; per patient): possibly | Attribution to Pentamidine: Urinary tract infection ([7]; per patient): No | AE Grade: Anorexia [7, 10]: 3 | AE Grade: Diarrhea [7, 10]: 3 | AE Grade: Elevated Lipase [7, 10]: 3 | AE Grade: Fainting/syncope [7, 10]: 3 | AE Grade: General deterioration [7, 10]: 4 | AE Grade: Hand-foot reaction [7, 10]: 3 | AE Grade: Neutropenia [7, 10]: 3 | AE Grade: Urinary tract infection [7, 10]: 3 | toxicity of pentamidine with CTX (in words) ([7]; preliminary analysis): consistent with known side effects of pentamidine; also recorded: manageable | Median OS time [7, 11]: has not yet been reached | median PFS time [7, 11]: 4.4 months
